Legend:
[1] = Pharmacokinetics study in mouse; format: in vivo; settings: ICR mice, oral gavage
Experimental: For time course study, mice were randomly assigned into 7 groups with 4 mice per group. […] For dose dependency study, mice were randomly assigned into 9 groups with 4 mice per group. […] Treatments were administered by oral gavage (p.o.) in a volume of 10 ml/kg body weight. Body weight was assessed immediately before dosing and volume dosed was adjusted accordingly.
PK SAMPLE PREPARATION: For time course study, blood samples (50 μL per mouse) were collected from the retro-orbital sinus under isoflurane/oxygen anesthesia at 15 min after dosing (this group of mice were also used for 24 hr time point) or heart puncture after euthanization for the other time points. For dose dependency study, blood samples were collected from the retro-orbital sinus under isoflurane/oxygen anesthesia at 30 minutes after dosing. Plasma was collected by centrifugation at 3,000 g for 10 minutes and was kept frozen in −80° C. until analysis.
PK Analysis: maximum plasma concentration (Cmax) and time to reach Cmax (Tmax) were taken directly from the plasma concentration versus time profiles.

[2] = test system: Rec-1 cells (MCL cell line); test: Tumor cell proliferation, CellTiter-Glo, Rec-1; format: cell-based; settings: Homo sapiens, Rec1, 144 h, Rec-1 cell line, 6-day exposure, mean of 3 independent assays, read-out: Potency IC50
Experimental: (§1) 3 MCL cell lines (Rec-1, Mino and JEKO-1) and an ABC type diffuse large B-cell lymphoma cell line (TMD8) were used in this study. Cell lines were maintained in RPMI-1640 supplemented with 10% fetal bovine serum/FBS (Thermo Scientific); 100 units/ml penicillin (Gibco) and 0.1 mg/ml streptomycin (Gibco) and kept at 37° C. in a humidified atmosphere of 5% CO2 in air. Cell lines were reinstated from frozen stocks that were laid down within 30 passages from the original cells purchased.
(§2) The growth-inhibitory activity of compounds in Rec-1, Mino, JEKO-1 and TMD-8 cells was determined using CellTiter-Glo luminescent cell viability assay (Promega). The number of cells seeded per well of a 96-well plate was optimized for each cell line to ensure logarithmic growth over 6 days treatment period. Cells were treated in triplicate with a 10-point dilution series. […] Mixture was mixed on an orbital shaker for 2 minutes to allow cell lysis, followed by 10 minutes incubation at room temperature to allow development and stabilization of luminescent signal, which corresponded to quantity of ATP and thus the quantity of metabolically active cells. Luminescent signal was measured using PHERAstar FS reader (BMG Labtech). IC50 values for cell viability were determined with GraphPad Prism software and were the mean of 3 independent assays.

Hygroscopic test (DVS) = format: physicochemical; settings: 80% RH, 25° C.
Experimental: The dynamic vapor sorption (DVS) plots shown as in FIG. 6 was collected a SMS (Surface Measurement Systems) DVS Intrinsic. The DVS parameters used includes: temperature (25° C.); dm/dt (0.002%/min); Min. dm/dt stability duration (10 min); Max. equilibrium time (180 min); RH range (0% RH to 95% RH); RH step size(10% RH from 0% RH to 90% RH, 5% RH from 90% RH to 95% RH).

[3] = Nonclinical toxicity studies in dogs
From the text: (§3) These studies took account the available regulatory guidance for preclinical development of anticancer drugs.

[4] = test system: JEKO-1 cells (MCL cell line); test: Tumor cell proliferation, CellTiter-Glo, JEKO-1; format: cell-based; settings: Homo sapiens, 144 h, JEKO-1 cell line, 6-day exposure, read-out: Potency IC50
Experimental: as §1, §2

TEC = target: T1, TEC (Homo sapiens, UniProt P42680); test: IC50 determination of TEC (TR-FRET); format: biochemical; settings: at KM of ATP, 1-hour pre-incubation
T1 sequence (P42680 1-631): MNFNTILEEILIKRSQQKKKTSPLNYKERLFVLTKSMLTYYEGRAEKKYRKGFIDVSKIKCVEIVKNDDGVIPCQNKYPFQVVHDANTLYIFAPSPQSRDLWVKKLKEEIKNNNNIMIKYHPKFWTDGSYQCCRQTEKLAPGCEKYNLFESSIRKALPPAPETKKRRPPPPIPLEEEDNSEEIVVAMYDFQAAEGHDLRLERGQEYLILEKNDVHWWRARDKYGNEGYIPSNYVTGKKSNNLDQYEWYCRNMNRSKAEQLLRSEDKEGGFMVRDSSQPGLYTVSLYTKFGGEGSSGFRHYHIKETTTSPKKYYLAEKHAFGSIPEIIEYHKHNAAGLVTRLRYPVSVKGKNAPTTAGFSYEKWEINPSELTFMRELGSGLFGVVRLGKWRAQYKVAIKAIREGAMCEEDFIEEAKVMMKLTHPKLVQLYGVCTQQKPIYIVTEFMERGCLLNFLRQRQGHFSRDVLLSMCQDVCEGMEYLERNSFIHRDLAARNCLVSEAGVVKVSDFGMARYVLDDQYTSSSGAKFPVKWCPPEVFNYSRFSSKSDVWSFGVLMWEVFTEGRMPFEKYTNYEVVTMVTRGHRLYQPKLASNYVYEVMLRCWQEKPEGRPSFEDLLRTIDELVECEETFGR

[5] = Nonclinical toxicity studies in rats
From the text: as §3

Tissue distribution = format: in vivo
[6] = test system: Chronic Lymphocytic Leukemia and Small Lymphocytic Lymphoma (CLL/SLL); test: Phase 1 trial in patients with CLL/SLL; format: in vivo, human
Experimental: The dose-escalation component of the trail tested total daily doses between 40 mg and 320 mg, and the ongoing dose-expansion component is testing doses of 160 mg twice a day (BID) or 320 mg once a day (QD). As of Mar. 31, 2017, 69 patients with CLL or SLL (18 TN, […]) were enrolled in the study.

[7] = CLL/SLL, adverse event of interest

C=CC(=O)N1CCC([C@@H]2CCNc3c(C(N)=O)c(-c4ccc(Oc5ccccc5)cc4)nn32)CC1 [Crystalline Form A, (S)-7-(1-acryloylpiperidin-4-yl)-2-(4-phenoxyphenyl)-4,5,6,7-tetra-hydropyrazolo[1,5-a]pyrimidine-3-carboxamide]
absorption and elimination [1]: quickly absorbed and eliminated
IC50 [2]: 0.36 nM
increase of mass (DVS) (Hygroscopic test (DVS)): about 0.8%
test article-related mortality ([3]; dog, in vivo): No test article-related mortality
changes in clinical chemistry or coagulation ([3]; dogs): No toxicologically significant changes
IC50 [4]: 20 nM
IC50 (TEC): 1.9 nM
test article-related mortality ([5]; rat, in vivo): No test article-related mortality
changes in clinical chemistry or coagulation ([5]; rats): No toxicologically significant changes

C=CC(=O)N1CCC([C@@H]2CCNc3c(C(N)=O)c(-c4ccc(Oc5ccccc5)cc4)nn32)CC1 [Compound 1, (S)-7-(1-acryloylpiperidin-4-yl)-2-(4-phenoxyphenyl)-4,5,6,7-tetra-hydropyrazolo[1,5-a]pyrimidine-3-carboxamide]
overall tolerance and severe toxicities compared with ibrutinib ([3]; dog single and repeat dose toxicity studies up to 28 days): safer than ibrutinib
level in brain tissue (Tissue distribution; brain): low in brain tissue
tissue distribution (Tissue distribution; various tissues): widely distributed to various tissues
overall tolerance and severe toxicities compared with ibrutinib ([5]; rat single and repeat dose toxicity studies up to 28 days): safer than ibrutinib
AE arthralgia ([6]; CLL/SLL): 12%
AE cough ([6]; CLL/SLL): 23%
AE diarrhea ([6]; CLL/SLL): 22%
AE fatigue ([6]; CLL/SLL): 29%
AE headache ([6]; CLL/SLL): 19%
AE hematuria ([6]; CLL/SLL): 15%
AE muscle spasms ([6]; CLL/SLL): 12%
AE nausea ([6]; CLL/SLL): 13%
AE rash ([6]; CLL/SLL): 13%
AE upper respiratory tract infection ([6]; CLL/SLL): 28%
AE urinary tract infection ([6]; CLL/SLL): 12%
number of serious AEs (SAEs) ([6]; CLL/SLL): 18
patients with serious AEs ([6]; CLL/SLL): 13
overall response rate (ORR) ([6]; CLL/SLL, 66 evaluable patients, median follow-up 10.5 months): 94%
PRs with lymphocytosis (PR-Ls) ([6]; CLL/SLL, 66 patients): 9%
complete responses (CRs) ([6]; CLL/SLL, 66 patients): 3%
partial responses (PRs) ([6]; CLL/SLL, 66 patients): 82%
grade 2 atrial fibrillation [6, 7]: one case
grade 2 diarrhea [6, 7]: one case
AE petechiae/purpura/contusion ([6]; CLL/SLL, any attribution): 46%
patients who discontinued treatment due to an AE ([6]; CLL/SLL, grade 2 pleural effusion): one patient
treatment discontinuation rate ([6]; CLL/SLL, median follow-up 10.5 months): 3%
major bleeding event ([6]; CLL/SLL, subcutaneous hemorrhage): one case of grade 3 purpura
CRs ([6]; R/R CLL/SLL, 50 patients): 2%
PR-Ls ([6]; R/R CLL/SLL, 50 patients): 8%
PRs ([6]; R/R CLL/SLL, 50 patients): 82%
stable disease ([6]; R/R CLL/SLL, 50 patients): 6%
ORR ([6]; R/R CLL/SLL, 50 patients, median follow-up 14.0 months): 92%
CRs ([6]; TN CLL/SLL, 16 patients): 6%
PR-Ls ([6]; TN CLL/SLL, 16 patients): 13%
PRs ([6]; TN CLL/SLL, 16 patients): 81%
ORR ([6]; TN CLL/SLL, 16 patients, median follow-up 7.6 months): 100%
